In ChEMBL document CHEMBL5154646, “Structure-guided optimization of 1H-imidazole-2-carboxylic acid derivatives affording potent VIM-Type metallo-β-lactamase inhibitors” (Eur J Med Chem, 2022):
Activity calls are given as the source filed them. The rule behind the calls is not given here.

Assays:
[1] = Toxicity in ICR mouse assessed as change in behavior at 500 to 2000 mg/kg, ip administered for 14 days; type: organism-based; settings: in vivo, 336 h, dose 500-2000 mg/kg, time 14 day
[2] = Toxicity in ICR mouse assessed as mortality at 500 to 2000 mg/kg, ip administered for 14 days; type: organism-based; settings: in vivo, 336 h, dose 500-2000 mg/kg, time 14 day
[3] = Toxicity in ICR mouse assessed as effect on histological architecture of liver at 500 to 2000 mg/kg, ip administered for 14 days by hematoxylin and eosin staining based histopathological assay; type: organism-based; settings: in vivo, 336 h, dose 500-2000 mg/kg, time 14 day
[4] = Inhibition of bacterial VIM-2 (27 to 266 residues) expressed in Escherichia coli Transetta (DE3) using FC-5 as substrate preincubated with enzyme for 10 mins followed by substrate addition by fluorescence based analysis; set-up: species or system Bacteria
Escherichia coli [5] = test: Potentiation of meropenem-induced antibacterial activity against Escherichia coli C1580 expressing VIM-2 assessed as meropenem MIC at 10 ug/ml incubated for 18 to 20 hrs by CLSI based broth microtiter dilution method (reference value: 32 ug/ml); type: functional; settings: dose 10 µg/ml, time 18-20 hrs
[6] = Inhibition of bacterial NDM-1 (1 to 270 residues) expressed in Escherichia coli Transetta (DE3) using FC-5 as substrate preincubated with enzyme for 10 mins followed by substrate addition by fluorescence based analysis; set-up: species or system Bacteria
Escherichia coli [7] = test: Potentiation of meropenem-induced antibacterial activity against Escherichia coli C1541 expressing VIM-2 assessed as meropenem MIC at 10 ug/ml incubated for 18 to 20 hrs by CLSI based broth microtiter dilution method (reference value: 16 ug/ml); type: functional; settings: dose 10 µg/ml, time 18-20 hrs
Escherichia coli [8] = test: Potentiation of meropenem-induced antibacterial activity against Escherichia coli C1542 expressing VIM-2 assessed as meropenem MIC at 10 ug/ml incubated for 18 to 20 hrs by CLSI based broth microtiter dilution method (reference value: 16 ug/ml); type: functional; settings: dose 10 µg/ml, time 18-20 hrs
Escherichia coli [9] = test: Potentiation of meropenem-induced antibacterial activity against Escherichia coli C1541 expressing IMP-1 assessed as meropenem MIC at 10 ug/ml incubated for 18 to 20 hrs by broth microtiter dilution method (reference value: 32 ug/ml); type: functional; settings: dose 10 µg/ml, time 18-20 hrs
[10] = Toxicity in ICR mouse assessed as effect on histological architecture of heart at 500 to 2000 mg/kg, ip administered for 14 days by hematoxylin and eosin staining based histopathological assay; type: organism-based; settings: in vivo, 336 h, dose 500-2000 mg/kg, time 14 day
Escherichia coli [11] = test: Synergistic antibacterial activity against Escherichia coli C1541 expressing VIM-2 assessed as fractional inhibitory concentration index incubated for 18 to 20 hrs in presence of meropenem by checkerboard microdilution assay; type: functional; settings: time 18-20 hrs
Pseudomonas aeruginosa [12] = test: Potentiation of meropenem-induced antibacterial activity against Pseudomonas aeruginosa W35 expressing VIM-2 assessed as fold reduction meropenem MIC at 10 ug/ml incubated for 18 to 20 hrs in presence of meropenem by CLSI based broth microtiter dilution method; type: functional; settings: dose 10 µg/ml; time 18-20 hrs
[13] = Inhibition of bacterial VIM-2 (27 to 266 residues) expressed in Escherichia coli Transetta (DE3) using FC-5 as substrate preincubated with enzyme for 10 mins followed by substrate addition in presence of 1 uM Zn2+ by fluorescence based analysis; set-up: species or system Bacteria
[14] = Inhibition of bacterial VIM-2 (27 to 266 residues) expressed in Escherichia coli Transetta (DE3) using FC-5 as substrate preincubated with enzyme for 10 mins followed by substrate addition in presence of 100 uM Zn2+ by fluorescence based analysis; set-up: species or system Bacteria
Escherichia coli [15] = test: Synergistic antibacterial activity against Escherichia coli C1541 expressing VIM-2 assessed as fractional inhibitory concentration index incubated for 18 to 20 hrs in presence of meropenem and 100 uM of zinc sulfate by checkerboard microdilution assay; type: functional; settings: time 18-20 hrs
Escherichia coli [16] = test: Bactericidal activity against Escherichia coli C1580 expressing VIM-2 assessed as induction of bacterial ultrastructural changes by measuring cellular debris at 20 ug/ml incubated for 1 hr in presence of meropenem by transmission electron microscopy; type: functional, organism-based; settings: dose 20.0 µg/ml
Pseudomonas aeruginosa [17] = test: Potentiation of meropenem-induced antibacterial activity against Pseudomonas aeruginosa W35 expressing VIM-2 assessed as meropenem MIC at 100 ug/ml incubated for 18 to 20 hrs in presence of meropenem by CLSI based broth microtiter dilution method (reference value: 64 ug/ml); type: functional; settings: dose 100 µg/ml, time 18-20 hrs
Pseudomonas aeruginosa [18] = test: Potentiation of meropenem-induced antibacterial activity against Pseudomonas aeruginosa 5621 expressing VIM-2 assessed as meropenem MIC at 100 ug/ml incubated for 18 to 20 hrs in presence of meropenem by CLSI based broth microtiter dilution method (reference value: 64 ug/ml); type: functional; settings: dose 100 µg/ml, time 18-20 hrs
Pseudomonas aeruginosa [19] = test: Synergistic antibacterial activity against Pseudomonas aeruginosa W35 expressing VIM-2 assessed as fractional inhibitory concentration index incubated for 18 to 20 hrs in presence of meropenem by checkerboard microdilution assay; type: functional; settings: time 18-20 hrs
Pseudomonas aeruginosa [20] = test: Induction of morphological changes in Pseudomonas aeruginosa W35 expressing VIM-2 at 10 ug/ml incubated for 1 hr by transmission electron microscopy; type: functional, organism-based; settings: dose 10.0 µg/ml
Pseudomonas aeruginosa [21] = test: Induction of morphological changes in Pseudomonas aeruginosa W35 expressing VIM-2 assessed as localized swelling, elongation with increased cell permeability at 10 ug/ml incubated for 1 hr in presence of meropenem by transmission electron microscopy; type: functional, organism-based; settings: dose 10.0 µg/ml
[22] = Toxicity in ip dosed ICR mouse assessed as maximum tolerated dose administered for 14 days; type: organism-based; settings: in vivo, time 14 day
[23] = Solubility of the compound in water; type: physicochemical
[24] = Tmax in Sprague-Dawley rat at 100 mg/kg, ip by UPLC analysis; type: ADME, organism-based; settings: in vivo
[25] = Half life in Sprague-Dawley rat at 100 mg/kg, ip by UPLC analysis; type: ADME, organism-based; settings: in vivo
[26] = Toxicity in ICR mouse assessed as change in body weight at 500 to 2000 mg/kg, ip administered for 14 days; type: organism-based; settings: in vivo, 336 h, dose 500-2000 mg/kg, time 14 day
[27] = Toxicity in ICR mouse assessed as effect on histological architecture of lungs at 500 to 2000 mg/kg, ip administered for 14 days by hematoxylin and eosin staining based histopathological assay; type: organism-based; settings: in vivo, 336 h, dose 500-2000 mg/kg, time 14 day
[28] = Toxicity in ICR mouse assessed as effect on histological architecture of kidney at 500 to 2000 mg/kg, ip administered for 14 days by hematoxylin and eosin staining based histopathological assay; type: organism-based; settings: in vivo, 336 h, dose 500-2000 mg/kg, time 14 day
Escherichia coli [29] = test: Potentiation of meropenem-induced antibacterial activity against Escherichia coli C1541 expressing VIM-2 assessed as fold reduction in meropenem MIC at 10 ug/ml incubated for 18 to 20 hrs by CLSI based broth microtiter dilution method; type: functional; settings: dose 10 µg/ml; time 18-20 hrs
Pseudomonas aeruginosa [30] = test: Potentiation of meropenem-induced antibacterial activity against Pseudomonas aeruginosa 5621 expressing VIM-2 assessed as fold reduction in meropenem MIC at 100 ug/ml incubated for 18 to 20 hrs by CLSI based broth microtiter dilution method; type: functional; settings: dose 100 µg/ml; time 18-20 hrs
Escherichia coli [31] = test: Potentiation of meropenem-induced antibacterial activity against Escherichia coli C1542 expressing VIM-2 assessed as fold reduction in meropenem MIC at 10 ug/ml incubated for 18 to 20 hrs by CLSI based broth microtiter dilution method; type: functional; settings: dose 10 µg/ml; time 18-20 hrs

Q: For `O=C(O)c1nccn1Cc1ccncc1`, which Activity [1] is on record?
A: Non-Toxic

Q: And the Activity [2]?
A: Non-Toxic

Q: And the Activity [3]?
A: Non-Toxic

Q: What about the IC50 [4] of the same compound?
A: 560 nM

Q: And the MIC (Escherichia coli [5])?
A: 1 µg/mL

Q: What about the IC50 [6] of the same compound?
A: > 300000 nM

Q: And the MIC (Escherichia coli [7])?
A: < 0.25 µg/mL

Q: What about the MIC (Escherichia coli [8]) of the same compound?
A: < 0.25 µg/mL

Q: And the MIC (Escherichia coli [9])?
A: 32 µg/mL

Q: What about the Activity [10] of the same compound?
A: Non-Toxic

Q: And the “fractional inhibitory concentration index (FICI)” value (Escherichia coli [11])?
A: 0.05

Q: And the “fold change (FC)” value (Pseudomonas aeruginosa [12])?
A: 4

Q: And the IC50 [13]?
A: 220 nM

Q: And the IC50 [14]?
A: 1750 nM

Q: What about the “fractional inhibitory concentration index (FICI)” value (Escherichia coli [15]) of the same compound?
A: 0.05

Q: And the Activity (Escherichia coli [16])?
A: Active

Q: And the MIC (Pseudomonas aeruginosa [17])?
A: 4 µg/mL

Q: And the MIC (Pseudomonas aeruginosa [18])?
A: 32 µg/mL

Q: What about the “fractional inhibitory concentration index (FICI)” value (Pseudomonas aeruginosa [19]) of the same compound?
A: 0.25

Q: And the Activity (Pseudomonas aeruginosa [20])?
A: Active

Q: And the Activity (Pseudomonas aeruginosa [21])?
A: Active

Q: What about the MTD at 336 h [22] of the same compound?
A: ≤ 2000 mg/kg

Q: And the solubility [23]?
A: > 20 mg/mL

Q: What about the Tmax [24] of the same compound?
A: 9 min

Q: And the half-life [25]?
A: 74.4 min

Q: What about the Activity [26] of the same compound?
A: Non-Toxic

Q: And the Activity [27]?
A: Non-Toxic

Q: And the Activity [28]?
A: Non-Toxic

Q: And the “fold change (FC)” value (Escherichia coli [29])?
A: >64

Q: What about the “fold change (FC)” value (Pseudomonas aeruginosa [30]) of the same compound?
A: 2

Q: And the “fold change (FC)” value (Escherichia coli [31])?
A: >64
